PubChem BioAssay (NCI)
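Cultured in 96-well plates, cells were exposed to test compound for 48 hours across five concentrations. At the GI50, growth is halved. TGI denotes the concentration required for complete inhibition of growth.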

What was measured:
Assay in all cases: NCI-60 cell line screen, 48 h
SNB-19 CNS = system: SNB-19 CNS
NCI-H23 lung = system: NCI-H23 lung
CCRF-CEM leukemia = system: CCRF-CEM leukemia
SK-MEL-2 melanoma = system: SK-MEL-2 melanoma
M14 melanoma = system: M14 melanoma
MCF7 breast = system: MCF7 breast
KM12 colon = system: KM12 colon
NCI-H522 lung = system: NCI-H522 lung
RPMI-8226 leukemia = system: RPMI-8226 leukemia
HCT-15 colon = system: HCT-15 colon
HOP-62 NSCLC = system: HOP-62 NSCLC
PC-3 prostate = system: PC-3 prostate
MDA-MB-435 = system: MDA-MB-435
OVCAR-3 ovarian = system: OVCAR-3 ovarian
MOLT-4 leukemia = system: MOLT-4 leukemia
HS 578T breast = system: HS 578T breast
OVCAR-8 ovarian = system: OVCAR-8 ovarian
COLO 205 colon = system: COLO 205 colon
MDA-MB-231 breast = system: MDA-MB-231 breast
SK-OV-3 ovarian = system: SK-OV-3 ovarian
EKVX NSCLC = system: EKVX NSCLC
NCI/ADR-RES ovarian = system: NCI/ADR-RES ovarian
RXF 393 renal = system: RXF 393 renal
786-0 renal = system: 786-0 renal
UACC-257 melanoma = system: UACC-257 melanoma
T-47D breast = system: T-47D breast
DU-145 prostate = system: DU-145 prostate
BT-549 breast = system: BT-549 breast
SK-MEL-5 melanoma = system: SK-MEL-5 melanoma
HT29 colon = system: HT29 colon
HOP-92 NSCLC = system: HOP-92 NSCLC
A498 renal = system: A498 renal
TK-10 renal = system: TK-10 renal
UO-31 renal = system: UO-31 renal
SF-295 CNS = system: SF-295 CNS
OVCAR-5 ovarian = system: OVCAR-5 ovarian
CAKI-1 renal = system: CAKI-1 renal
SK-MEL-28 melanoma = system: SK-MEL-28 melanoma
SW-620 colon = system: SW-620 colon
SF-539 CNS = system: SF-539 CNS
LOX IMVI melanoma = system: LOX IMVI melanoma
ACHN renal = system: ACHN renal
U251 CNS = system: U251 CNS
A549 NSCLC = system: A549 NSCLC
IGROV1 ovarian = system: IGROV1 ovarian
SF-268 CNS = system: SF-268 CNS
UACC-62 melanoma = system: UACC-62 melanoma
HCT-116 colon = system: HCT-116 colon
OVCAR-4 ovarian = system: OVCAR-4 ovarian
K-562 leukemia = system: K-562 leukemia
NCI-H226 lung = system: NCI-H226 lung
NCI-H460 lung = system: NCI-H460 lung
SN12C renal = system: SN12C renal

O=S(=O)(c1cccc2c(Cl)cccc12)N1CCCNCC1
GI50 (SNB-19 CNS): 16.3 µM | TGI (SNB-19 CNS): 30.5 µM | GI50 (NCI-H23 lung): 13.8 µM | TGI (NCI-H23 lung): 27.1 µM | GI50 (CCRF-CEM leukemia): 15.1 µM | TGI (CCRF-CEM leukemia): 28.4 µM | GI50 (SK-MEL-2 melanoma): 17.6 µM | TGI (SK-MEL-2 melanoma): 34.3 µM | GI50 (M14 melanoma): 12.4 µM | TGI (M14 melanoma): 24.9 µM | GI50 (MCF7 breast): 24.5 µM | TGI (MCF7 breast): 50.8 µM | GI50 (KM12 colon): 15 µM | TGI (KM12 colon): 28.2 µM | GI50 (NCI-H522 lung): 19.7 µM | TGI (NCI-H522 lung): 37.1 µM | GI50 (RPMI-8226 leukemia): 13.9 µM | TGI (RPMI-8226 leukemia): 32.7 µM | GI50 (HCT-15 colon): 14.5 µM | TGI (HCT-15 colon): 27.5 µM | GI50 (HOP-62 NSCLC): 11.2 µM | TGI (HOP-62 NSCLC): 23.3 µM | GI50 (PC-3 prostate): 13.8 µM | TGI (PC-3 prostate): 26.8 µM | GI50 (MDA-MB-435): 14.9 µM | TGI (MDA-MB-435): 28.6 µM | GI50 (OVCAR-3 ovarian): 14.6 µM | TGI (OVCAR-3 ovarian): 29.4 µM | GI50 (MOLT-4 leukemia): 12.8 µM | TGI (MOLT-4 leukemia): 26 µM | GI50 (HS 578T breast): 21.4 µM | TGI (HS 578T breast): 45.4 µM | GI50 (OVCAR-8 ovarian): 14.1 µM | TGI (OVCAR-8 ovarian): 31.4 µM | GI50 (COLO 205 colon): 16.4 µM | TGI (COLO 205 colon): 35.4 µM | GI50 (MDA-MB-231 breast): 5.49 µM | TGI (MDA-MB-231 breast): 19.3 µM | GI50 (SK-OV-3 ovarian): 15.7 µM | TGI (SK-OV-3 ovarian): 29.1 µM | GI50 (EKVX NSCLC): 19.9 µM | TGI (EKVX NSCLC): 35.9 µM | GI50 (NCI/ADR-RES ovarian): 13.7 µM | TGI (NCI/ADR-RES ovarian): 26.6 µM | GI50 (RXF 393 renal): 2.88 µM | TGI (RXF 393 renal): 22.4 µM | GI50 (786-0 renal): 11.1 µM | TGI (786-0 renal): 23.1 µM | GI50 (UACC-257 melanoma): 10.1 µM | TGI (UACC-257 melanoma): 22.8 µM | GI50 (T-47D breast): 11.7 µM | TGI (T-47D breast): 29.4 µM | GI50 (DU-145 prostate): 17.1 µM | TGI (DU-145 prostate): 32.1 µM | GI50 (BT-549 breast): 19.8 µM | TGI (BT-549 breast): 36.4 µM | GI50 (SK-MEL-5 melanoma): 13.6 µM | TGI (SK-MEL-5 melanoma): 26.5 µM | GI50 (HT29 colon): 3.62 µM | TGI (HT29 colon): 18.1 µM | GI50 (HOP-92 NSCLC): 11 µM | TGI (HOP-92 NSCLC): 25.8 µM | GI50 (A498 renal): 17.9 µM | TGI (A498 renal): 32.5 µM | GI50 (TK-10 renal): 13 µM | TGI (TK-10 renal): 25.8 µM | GI50 (UO-31 renal): 14.1 µM | TGI (UO-31 renal): 28.5 µM | GI50 (SF-295 CNS): 17.7 µM | TGI (SF-295 CNS): 34.5 µM | GI50 (OVCAR-5 ovarian): 11.5 µM | TGI (OVCAR-5 ovarian): 23.6 µM | GI50 (CAKI-1 renal): 17.3 µM | TGI (CAKI-1 renal): 32.6 µM | GI50 (SK-MEL-28 melanoma): 10.8 µM | TGI (SK-MEL-28 melanoma): 22.7 µM | GI50 (SW-620 colon): 17.9 µM | TGI (SW-620 colon): 31.8 µM | GI50 (SF-539 CNS): 19.4 µM | TGI (SF-539 CNS): 37.7 µM | GI50 (LOX IMVI melanoma): 13.4 µM | TGI (LOX IMVI melanoma): 26.3 µM | GI50 (ACHN renal): 14.4 µM | TGI (ACHN renal): 27.4 µM | GI50 (U251 CNS): 14.6 µM | TGI (U251 CNS): 27.7 µM | GI50 (A549 NSCLC): 14 µM | TGI (A549 NSCLC): 28.2 µM | GI50 (IGROV1 ovarian): 18.6 µM | TGI (IGROV1 ovarian): 34.6 µM | GI50 (SF-268 CNS): 21.8 µM | TGI (SF-268 CNS): 52.9 µM | GI50 (UACC-62 melanoma): 13.6 µM | TGI (UACC-62 melanoma): 26.5 µM | GI50 (HCT-116 colon): 10.3 µM | TGI (HCT-116 colon): 21.9 µM | GI50 (OVCAR-4 ovarian): 11.2 µM | TGI (OVCAR-4 ovarian): 24.3 µM | GI50 (K-562 leukemia): 12.7 µM | TGI (K-562 leukemia): 25.3 µM | GI50 (NCI-H226 lung): 11.8 µM | TGI (NCI-H226 lung): 25.3 µM | GI50 (NCI-H460 lung): 19.4 µM | TGI (NCI-H460 lung): 47 µM | GI50 (SN12C renal): 12.2 µM | TGI (SN12C renal): 24.6 µM
